ChEMBL document CHEMBL1250451, “Mechanistic insights into a Ca2+-dependent family of alpha-mannosidases in a human gut symbiont” (Nat Chem Biol, 2010)
Active and inactive are the calls of the source. The calls are words filed in the database; no cut-off is given here.

Experiments:
Format in all cases: protein assay
[1] = molecular target: T1, Alpha-1,2-mannosidase, putative (BT_3130) (Bacteroides thetaiotaomicron) (UniProt Q8A325); experiment: Activity of Bacteroides thetaiotaomicron GH92 alpha-mannosidase GH92 alpha-mannosidase 3130 assessed as mannose release at 1 mM after 16 hrs by HPLC relative to untreated control after 16 hrs by HPLC
T1 sequence (whole entry): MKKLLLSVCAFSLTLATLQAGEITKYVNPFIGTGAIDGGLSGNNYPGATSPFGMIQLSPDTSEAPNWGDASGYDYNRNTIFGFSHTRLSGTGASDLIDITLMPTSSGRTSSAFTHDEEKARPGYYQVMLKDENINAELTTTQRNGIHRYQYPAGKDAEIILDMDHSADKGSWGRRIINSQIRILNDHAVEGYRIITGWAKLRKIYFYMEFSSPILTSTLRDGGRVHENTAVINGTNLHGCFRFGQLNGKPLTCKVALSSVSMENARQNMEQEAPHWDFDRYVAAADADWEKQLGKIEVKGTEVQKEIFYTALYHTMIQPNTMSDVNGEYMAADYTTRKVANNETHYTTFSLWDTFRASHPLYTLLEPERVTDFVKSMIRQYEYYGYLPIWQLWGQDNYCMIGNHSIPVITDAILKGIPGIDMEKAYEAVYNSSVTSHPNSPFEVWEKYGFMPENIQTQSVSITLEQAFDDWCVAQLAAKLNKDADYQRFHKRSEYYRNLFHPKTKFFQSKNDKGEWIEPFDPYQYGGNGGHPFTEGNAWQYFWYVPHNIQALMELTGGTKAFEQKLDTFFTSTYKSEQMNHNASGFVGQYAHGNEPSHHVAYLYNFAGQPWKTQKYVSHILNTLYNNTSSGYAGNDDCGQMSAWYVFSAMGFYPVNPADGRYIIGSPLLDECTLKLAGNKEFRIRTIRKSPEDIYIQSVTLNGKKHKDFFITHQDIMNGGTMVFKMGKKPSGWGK

[2] = molecular target: T2, Alpha-1,2-mannosidase (BT_3784) (Bacteroides thetaiotaomicron) (UniProt Q8A182); experiment: Activity of Bacteroides thetaiotaomicron GH92 alpha-mannosidase GH92 alpha-mannosidase 3784 assessed as mannose release at 1 mM after 16 hrs by HPLC relative to untreated control after 16 hrs by HPLC
T2 sequence (whole entry): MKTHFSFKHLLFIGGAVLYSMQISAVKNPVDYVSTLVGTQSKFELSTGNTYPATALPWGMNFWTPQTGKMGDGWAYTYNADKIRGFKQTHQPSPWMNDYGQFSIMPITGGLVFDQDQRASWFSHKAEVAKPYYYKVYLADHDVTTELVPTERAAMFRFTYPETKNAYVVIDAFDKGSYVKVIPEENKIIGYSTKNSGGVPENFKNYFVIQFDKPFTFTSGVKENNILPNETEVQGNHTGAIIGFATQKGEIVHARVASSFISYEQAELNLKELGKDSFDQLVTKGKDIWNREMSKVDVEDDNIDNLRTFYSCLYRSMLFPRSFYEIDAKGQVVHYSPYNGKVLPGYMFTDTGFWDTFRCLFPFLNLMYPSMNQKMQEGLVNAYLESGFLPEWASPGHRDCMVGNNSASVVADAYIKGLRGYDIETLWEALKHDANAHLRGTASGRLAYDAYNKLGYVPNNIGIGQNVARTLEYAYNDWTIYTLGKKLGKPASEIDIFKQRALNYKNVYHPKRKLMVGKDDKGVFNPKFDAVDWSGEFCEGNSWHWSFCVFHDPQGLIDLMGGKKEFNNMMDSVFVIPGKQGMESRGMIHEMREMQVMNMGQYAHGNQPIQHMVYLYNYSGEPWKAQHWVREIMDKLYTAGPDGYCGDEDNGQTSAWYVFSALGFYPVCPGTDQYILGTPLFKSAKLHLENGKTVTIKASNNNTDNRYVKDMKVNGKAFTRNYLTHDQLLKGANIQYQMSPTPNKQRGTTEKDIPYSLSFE

[3] = molecular target: T3, Alpha-1,2-mannosidase family protein (BT_1032) (Bacteroides thetaiotaomicron) (UniProt Q8A8Y5); experiment: Activity of Bacteroides thetaiotaomicron GH92 alpha-mannosidase 1032 assessed as mannose release at 1 mM after 16 hrs by HPLC relative to untreated control
T3 sequence (whole entry): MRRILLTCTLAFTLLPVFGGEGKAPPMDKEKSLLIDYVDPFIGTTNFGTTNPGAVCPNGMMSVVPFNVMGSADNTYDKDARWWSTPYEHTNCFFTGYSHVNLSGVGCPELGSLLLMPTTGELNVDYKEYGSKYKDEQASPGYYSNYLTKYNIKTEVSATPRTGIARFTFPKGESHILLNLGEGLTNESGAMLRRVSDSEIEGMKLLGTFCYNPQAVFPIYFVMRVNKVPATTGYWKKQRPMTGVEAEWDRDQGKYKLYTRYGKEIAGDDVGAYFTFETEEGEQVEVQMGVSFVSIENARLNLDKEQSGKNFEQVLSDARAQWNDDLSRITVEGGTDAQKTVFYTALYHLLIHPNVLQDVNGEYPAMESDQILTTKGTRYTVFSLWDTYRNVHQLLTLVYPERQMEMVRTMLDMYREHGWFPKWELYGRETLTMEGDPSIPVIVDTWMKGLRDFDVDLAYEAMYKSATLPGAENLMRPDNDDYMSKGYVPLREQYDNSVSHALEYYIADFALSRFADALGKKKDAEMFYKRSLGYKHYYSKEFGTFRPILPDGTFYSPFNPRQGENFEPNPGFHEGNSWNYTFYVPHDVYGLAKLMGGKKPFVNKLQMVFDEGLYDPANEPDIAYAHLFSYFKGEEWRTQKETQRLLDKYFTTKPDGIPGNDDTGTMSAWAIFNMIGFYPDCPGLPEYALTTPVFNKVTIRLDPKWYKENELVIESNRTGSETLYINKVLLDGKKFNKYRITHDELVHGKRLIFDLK

OC[C@H]1O[C@H](OC[C@H]2O[C@H](O)[C@@H](O)[C@@H](O)[C@@H]2O)[C@@H](O)[C@@H](O)[C@@H]1O
Activity [1]: 21%
Activity [2]: inactive
Activity [3]: inactive

OC[C@H]1O[C@H](O[C@H]2[C@H](O)[C@H](O)[C@@H](O)O[C@@H]2CO)[C@@H](O)[C@@H](O)[C@@H]1O
Activity [1]: 23%
Activity [2]: 7.8%
Activity [3]: inactive

OC[C@H]1O[C@H](O[C@H]2[C@@H](O)[C@H](O)[C@@H](CO)O[C@@H]2O)[C@@H](O)[C@@H](O)[C@@H]1O
Activity [1]: 4.3%
Activity [2]: 100%
Activity [3]: inactive

OC[C@H]1O[C@H](O[C@@H]2[C@H](O)[C@@H](O)O[C@H](CO)[C@H]2O)[C@@H](O)[C@@H](O)[C@@H]1O
Activity [2]: 5.6%
Activity [3]: inactive
